One assay has as its target EGFR (human) (UniProt P00533). Particulars: 3t3.
For the next assay, the target named is EGFR (UniProt P00533).

The structures appear in SMILES notation. Some results are limits rather than exact numbers.

Sequence of EGFR (P00533 whole entry, looked up): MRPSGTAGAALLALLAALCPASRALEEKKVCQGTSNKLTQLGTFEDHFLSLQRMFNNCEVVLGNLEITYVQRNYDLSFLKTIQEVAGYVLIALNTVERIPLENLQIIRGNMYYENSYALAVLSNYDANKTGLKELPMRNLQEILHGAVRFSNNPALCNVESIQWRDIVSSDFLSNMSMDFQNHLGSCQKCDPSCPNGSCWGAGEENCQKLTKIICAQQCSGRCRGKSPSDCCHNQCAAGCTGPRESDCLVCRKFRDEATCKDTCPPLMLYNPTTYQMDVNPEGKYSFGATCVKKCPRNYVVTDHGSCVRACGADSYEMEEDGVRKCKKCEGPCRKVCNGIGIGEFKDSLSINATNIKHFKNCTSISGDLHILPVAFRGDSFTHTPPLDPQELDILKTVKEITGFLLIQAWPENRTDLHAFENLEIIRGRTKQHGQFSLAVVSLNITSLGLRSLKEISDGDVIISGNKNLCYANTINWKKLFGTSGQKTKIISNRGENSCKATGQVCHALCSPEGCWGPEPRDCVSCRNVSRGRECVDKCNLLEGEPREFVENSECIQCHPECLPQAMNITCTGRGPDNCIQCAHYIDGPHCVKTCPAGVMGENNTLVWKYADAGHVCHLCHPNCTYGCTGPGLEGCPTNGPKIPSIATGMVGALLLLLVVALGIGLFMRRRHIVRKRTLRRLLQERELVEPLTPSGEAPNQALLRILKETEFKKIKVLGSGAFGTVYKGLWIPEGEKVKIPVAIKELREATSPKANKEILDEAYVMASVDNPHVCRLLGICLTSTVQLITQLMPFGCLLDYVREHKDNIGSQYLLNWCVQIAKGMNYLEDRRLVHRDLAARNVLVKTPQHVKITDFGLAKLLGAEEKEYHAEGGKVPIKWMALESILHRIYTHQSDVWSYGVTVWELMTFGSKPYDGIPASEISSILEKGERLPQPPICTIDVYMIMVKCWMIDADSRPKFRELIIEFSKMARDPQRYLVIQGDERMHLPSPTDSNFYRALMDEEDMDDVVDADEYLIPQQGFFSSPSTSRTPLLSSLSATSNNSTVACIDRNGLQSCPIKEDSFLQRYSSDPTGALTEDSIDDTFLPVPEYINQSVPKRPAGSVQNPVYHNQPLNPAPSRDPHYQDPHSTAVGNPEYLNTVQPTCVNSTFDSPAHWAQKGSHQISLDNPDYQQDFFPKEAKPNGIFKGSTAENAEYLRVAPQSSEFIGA
Sequence of EGFR (human) (P00533 whole entry, looked up): as above

Turning to `COc1ccc(-c2ccc3c(c2)NC(=O)/C3=C\c2[nH]cc(CCC(=O)O)c2C)cc1`, at EGFR (human), the IC50 (commonly the point on the concentration scale where inhibition reaches its midpoint) is 36.8 µM. Regarding `Cc1[nH]c(/C=C2/C(=O)Nc3cc(-c4ccccc4)ccc32)c(C)c1CCCN(C)C`, the IC50 on EGFR (human) was 4 µM; against EGFR, greater than 100 µM. On to `CCOc1cccc(-c2ccc3c(c2)NC(=O)/C3=C\c2[nH]cc(CCC(=O)O)c2C)c1`, for which the IC50 at EGFR (human) is 37.2 µM.

As for `COc1ccc2c(c1)NC(=O)/C2=C\c1[nH]c(C)c(CCCN(C)C)c1C`, the IC50 is 27.5 µM on EGFR (human) and greater than 100 µM against EGFR. At EGFR (human), `COc1ccc2c(c1)/C(=C/c1[nH]cc(CCC(=O)O)c1C)C(=O)N2` gave an IC50 greater than 50 µM. In the case of `Cc1[nH]c(/C=C2/C(=O)Nc3cc(Cl)ccc32)c(C)c1CCCN(C)C`, the IC50 was found to be 25.4 µM against EGFR (human) and 86.6 µM against EGFR. `Cc1[nH]c(/C=C2/C(=O)Nc3ccc(Cl)cc32)c(C)c1CCCN(C)C`: the results for the half-maximal inhibitory concentration (IC50) against EGFR (human) and at EGFR were 7.49 µM and greater than 100 µM, respectively. `Cc1[nH]c(/C=C2/C(=O)Nc3ccc(S(N)(=O)=O)cc32)c(C)c1CCCN(C)C`: the 50% inhibitory concentration (IC50) at EGFR (human) turned out to be 6.59 µM. Turning to `Cc1[nH]c(/C=C2/C(=O)Nc3ccc(Br)cc32)c(C)c1CCCN(C)C`, the results for the IC50 against EGFR (human) and against EGFR were 4.1 µM and greater than 100 µM, respectively. Compound `CCc1ccc2c(c1)/C(=C/c1[nH]cc(CCC(=O)O)c1C)C(=O)N2` gave an IC50 on EGFR (human) greater than 50 µM. The same measure, in the same setting: to `Cc1c(CCC(=O)O)c[nH]c1/C=C1/C(=O)Nc2ccc(Cl)cc21` belongs 12 µM; to `Cc1c(CCC(=O)O)c[nH]c1/C=C1/C(=O)Nc2cc(Br)ccc21`, greater than 50 µM. On the same count and under the same terms, to `COc1cc2c(cc1OC)/C(=C/c1[nH]cc(CCC(=O)O)c1C)C(=O)N2` belongs greater than 50 µM; to `Cc1c(CCC(=O)O)c[nH]c1/C=C1/C(=O)Nc2cc(-c3ccccc3)ccc21`, 30.5 µM; to `Cc1c(CCC(=O)O)c[nH]c1/C=C1/C(=O)Nc2ccc(I)cc21`, greater than 50 µM. Turning to `COc1ccc2c(c1)NC(=O)/C2=C\c1[nH]cc(CCC(=O)O)c1C`, the half-inhibitory concentration (IC50) against EGFR (human) was greater than 50 µM. As for `Cc1[nH]c(/C=C2/C(=O)Nc3cccc(CCO)c32)c(C)c1CCCN(C)C`, the IC50 against EGFR (human) was 25.3 µM.

For `COc1ccccc1-c1ccc2c(c1)NC(=O)/C2=C\c1[nH]c(C)c(CCCN2CCOCC2)c1C`, the half-inhibitory concentration (IC50) at EGFR (human) is 3.9 µM; against EGFR, greater than 100 µM. With `COc1ccc(-c2ccc3c(c2)NC(=O)/C3=C\c2[nH]c(C)c(CCCN3CCOCC3)c2C)cc1`, the IC50 on EGFR (human) is greater than 50 µM; at EGFR, greater than 100 µM. As for `Cc1cccc2c1/C(=C\c1[nH]c(C)c(CCCN(C)C)c1C)C(=O)N2`, the IC50 against EGFR (human) is 20.2 µM. Still for that read-out and setting: the result for `Cc1[nH]c(/C=C2/C(=O)Nc3ccc(S(=O)(=O)N(C)C)cc32)c(C)c1CCCN(C)C` reads 11.2 µM; that for `COC(=O)c1ccc2c(c1)/C(=C/c1[nH]cc(CCC(=O)O)c1C)C(=O)N2`, greater than 50 µM.

In the case of `CCOc1cccc(-c2ccc3c(c2)NC(=O)/C3=C\c2[nH]c(C)c(CCC(=O)O)c2C)c1`, at EGFR (human), the IC50 came to 24.7 µM. As for `Cc1[nH]c(/C=C2/C(=O)Nc3ccc(I)cc32)c(C)c1CCC(=O)O`, the IC50 against EGFR (human) was greater than 50 µM. Turning to `COc1cccc(-c2ccc3c(c2)NC(=O)/C3=C\c2[nH]c(C)c(CCCN3CCOCC3)c2C)c1`, the IC50 at EGFR (human) was 41.9 µM; against EGFR, greater than 100 µM. With `Cc1[nH]c(/C=C2/C(=O)Nc3ccccc32)c(C)c1CCCN(C)C`, the IC50 is 12.6 µM against EGFR (human) and greater than 100 µM at EGFR. For `Cc1[nH]c(/C=C2/C(=O)Nc3ccc(Br)cc32)c(C)c1CCCN1CCOCC1`, in that order: 44.6 µM and greater than 100 µM. `Cc1[nH]c(/C=C2/C(=O)Nc3cc(O)ccc32)c(C)c1CCC(=O)O`: the half-inhibitory concentration (IC50) against EGFR (human) was greater than 50 µM. At EGFR (human), `Cc1[nH]c(/C=C2/C(=O)Nc3ccc(Br)cc32)c(C)c1CCC(=O)O` had a half-maximal inhibitory concentration (IC50) greater than 50 µM.

`Cc1cccc2c1/C(=C\c1[nH]c(C)c(CCC(=O)O)c1C)C(=O)N2` came in with a concentration for half-maximal inhibition (IC50) at EGFR (human) greater than 50 µM. In the case of `Cc1[nH]c(/C=C2/C(=O)Nc3ccc(S(=O)(=O)N4CCOCC4)cc32)c(C)c1CCCN(C)C`, at EGFR (human), the concentration for half-maximal inhibition (IC50) was 29.8 µM. The same measure, in the same setting: to `Cc1c(CCC(=O)O)c[nH]c1/C=C1/C(=O)Nc2cc(Cl)ccc21` belongs greater than 50 µM. For the compound `COc1ccccc1-c1ccc2c(c1)NC(=O)/C2=C\c1[nH]c(C)c(CCCN(C)C)c1C`, the 50% inhibitory concentration (IC50) against EGFR (human) was determined as 9.56 µM; on EGFR, 22.8 µM. For `Cc1[nH]c(/C=C2\C(=O)Nc3ccc(S(=O)(=O)NC(C)C)cc32)c(C)c1CCCN(C)C`, the concentration for half-maximal inhibition (IC50) on EGFR (human) turned out to be 8.38 µM.

As for `Cc1[nH]c(/C=C2/C(=O)Nc3ccccc32)c(C)c1CCCN1CCOCC1`, the half-maximal inhibitory concentration (IC50) at EGFR (human) is greater than 50 µM; against EGFR, greater than 100 µM. With `COc1ccc2c(c1)/C(=C/c1[nH]c(C)c(CCCN(C)C)c1C)C(=O)N2`, the concentration for half-maximal inhibition (IC50) is 11 µM at EGFR (human) and greater than 100 µM on EGFR. As to `Cc1[nH]c(/C=C2/C(=O)Nc3cc(-c4ccccc4)ccc32)c(C)c1CCCN1CCOCC1`, the concentration for half-maximal inhibition (IC50) on EGFR (human) is greater than 50 µM; on EGFR it was greater than 100 µM. As to `Cc1ccc2c(c1)/C(=C\c1[nH]c(C)c(CCCN(C)C)c1C)C(=O)N2`, the half-maximal inhibitory concentration (IC50) at EGFR (human) came to 25.4 µM. For the compound `Cc1ccc2c(c1)/C(=C\c1[nH]c(C)c(CCC(=O)O)c1C)C(=O)N2`, the IC50 against EGFR (human) was greater than 50 µM. As for `Cc1[nH]c(/C=C2/C(=O)Nc3cc(-c4ccccc4)ccc32)c(C)c1CCC(=O)O`, the 50% inhibitory concentration (IC50) against EGFR (human) was found to be 32.7 µM.

The compound `COc1ccc2c(c1)NC(=O)/C2=C\c1[nH]c(C)c(CCC(=O)O)c1C` displayed an IC50 against EGFR (human) greater than 50 µM. On EGFR (human), `COc1ccc(-c2ccc3c(c2)NC(=O)/C3=C\c2[nH]c(C)c(CCC(=O)O)c2C)cc1` registered a concentration for half-maximal inhibition (IC50) greater than 50 µM. The same measure, in the same setting: to `Cc1c(CCC(=O)O)c[nH]c1/C=C1/C(=O)Nc2ccc(Br)cc21` belongs greater than 50 µM. In the case of `Cc1[nH]c(/C=C2/C(=O)Nc3ccc(Cl)cc32)c(C)c1CCC(=O)O`, the IC50 on EGFR (human) was greater than 50 µM. At EGFR (human), `Cc1cccc2c1/C(=C\c1[nH]cc(CCC(=O)O)c1C)C(=O)N2` showed a half-maximal inhibitory concentration (IC50) greater than 50 µM.

`Cc1c(CCC(=O)O)c[nH]c1/C=C1/C(=O)Nc2ccccc21` gave a half-inhibitory concentration (IC50) against EGFR (human) greater than 50 µM. For the compound `Cc1ccc2c(c1)/C(=C\c1[nH]cc(CCC(=O)O)c1C)C(=O)N2`, the IC50 against EGFR (human) is greater than 50 µM. Consider `COc1ccc(-c2ccc3c(c2)NC(=O)/C3=C\c2[nH]c(C)c(CCCN(C)C)c2C)cc1`, for which the half-maximal inhibitory concentration (IC50) against EGFR (human) is 3.86 µM; on EGFR, greater than 100 µM. The compound `COc1cccc(-c2ccc3c(c2)NC(=O)/C3=C\c2[nH]cc(CCC(=O)O)c2C)c1` had an IC50 against EGFR (human) of 30.6 µM.

For the compound `COc1cccc(-c2ccc3c(c2)NC(=O)/C3=C\c2[nH]c(C)c(CCCN(C)C)c2C)c1`, the IC50 on EGFR (human) amounted to 9.57 µM; at EGFR, 28.1 µM.

The record behind these values is the Kinase Knowledgebase extract (Sharma et al. 2016).
